Experimental data: US20250060373A1, “NOVEL ASSAY AND NOVEL METHODS OF TREATING HUTCHINSON-GILFORD PROGERIA SYNDROME” (The Progeria Research Foundation, priority 2021, published 2025)

How the values were obtained:
plasma progerin = assay: Plasma progerin (SMC Progerin Immunoassay) in HGPS clinical trial patients on therapy; assay type: in vivo, human
Source text: An SMC ultrasensitive immunoassay for the detection of plasma progerin was developed. Overall, the assay employed a sandwich immunoassay format with an anti-lamin A capture antibody coated on magnetic microparticles, and an anti-progerin specific detection antibody conjugated to a fluorescent tag (FIG. 1) run in a 96-well plate. Progerin-bound detection antibody was eluted and read as single molecules using a confocal laser.
The SMC assay for measuring Progerin was as previously described (Todd et al.), except that magnetic microparticles (MP) coated with capture antibodies and detection reagents were specific to the progerin assay (FIG. 1). […] Progerin-bound detection antibody was then eluted by pH shift using a proprietary glycine buffer, transferred to a new plate and detected by SMC using the Erenna Immunoassay System software (SgxLink™). The raw signal data and the interpolated value data obtained from SgxLink were transferred to Excel where precision was then calculated for the replicate wells. […]
For analysis, samples were fully thawed at RT for <5 min, lightly mixed, diluted in standard diluent before transferring into filter plate wells (MilliporeSigma MSBVN1210). […] Filtrate was then assessed as described. […]

children with HGPS = children with HGPS treated with lonafarnib in clinical trials; cited from earlier work

## NC(=O)N1CCC(CC(=O)N2CCC([C@H]3c4ncc(Br)cc4CCc4cc(Cl)cc(Br)c43)CC2)CC1 [lonafarnib]
Plasma progerin; 10 patients, extension of additional 4.1±0.5 years, p=0.99
  average progerin, lonafarnib monotherapy extension visits versus consecutive Triple Therapy visits: no significant differences
Plasma progerin; ProLon1, each of the 4 trial visits after the 8-month visit, N=22-25, all p<0.05
  progerin at 150 mg/m^2 versus the 115 mg/m^2 dose: significantly decreased
Children with HGPS
  increased survival, estimated, on average: 2.5 years
